Source: patent publication US8518978B2, “Pharmaceutical composition for prevention and treatment of restenosis comprising isoxazole derivatives” (SK Biopharmaceuticals Co., Ltd., priority 2007, dated 2013)

Experiments:
[1] = tested on: HUVEC (human umbrical vein endothelial cell); test: Test of endothelial cell proliferation (cell count); format: cell-based; settings: for endothelial cell proliferation: drug alone, increasing concentration, two days, cell count (FIGS. 5, 8 to 10)
Experimental: An HUVEC (human umbrical vein endothelial cell, Cambrex, US) cell line at 3-10 passages was incubated in an EGM2 (endothelial growth medium, Cambrex, US) culture medium under a standard culture condition (O2 95%, 5% CO2, 37° C., 100% RH). 1×10^4 Cells was divided into a 24-well plate, and cultured for a day so that the cells can be fixed into the 24-well plate. In order to allow the cells to enter interphase, the cells were washed three times with PBS, and the EGM2 culture medium was replaced by EBM2 (endothelial basal medium, Cambrex) including 1% fetal bovine serum and 1% antibiotic-antimycotic (Gibco, US), and the cells were incubated for a day. After the used medium was removed, an EBM2 including 1% fetal bovine serum and 1% antibiotic-antimycotic (Gibco) solution supplemented with a drug was added to the cells, and the cell solution was then cultured for two days. After the cell culture, morphology of the cells was observed under a microscope. Then, the cells were detached from the plate using trypsin, and counted using a hemacytometer. 0.1% DMSO dissolved in saline was used as the vehicle control.

[2] = tested on: rat carotid artery injury model; test: Re-endothelization in rat carotid artery injury model (vWF staining); format: in vivo
Description: (§1) White rats weighed 350 to 400 g were anesthetized with ketamine and xylene, and their surgery regions were shaved and sterilized with betadine. Skin on the neck region was cut by about 2 cm, and a rat carotid artery was found using a mosquito. A blood flow was prevented by hanging a thread on the carotid artery and an internal carotid artery, followed by tying an external carotid artery with a thread. A 2F forgarty catheter (Baxter, US) was inserted into a blood vessel between the external carotid artery and the carotid artery to wound a carotid artery region three times. Then, the wounded carotid artery region was tied with a thread to allow a blood flow through the carotid artery and the internal carotid artery and prevent hemorrhage between the carotid artery and the external carotid artery, and the surgery region was closed with stitches. Each of rear neck skins were cut by approximately 1 cm, and an osmotic pump containing a drug is inserted into the blood vessel and closed with stitches. After 1 week to observe the endothelial cells and 2 weeks to observe the restenosis, all blood was extracted from each subject rat using a perfusion, carotid arteries were taken from the rats and their tissue slides were made to observe their section of blood vessel. […]

[3] = tested on: rat carotid artery injury model; test: Restenosis inhibition in rat carotid artery injury model; format: in vivo
Description: as §1

[4] = tested on: SMC (rat aortic smooth muscle cell); test: Test of vascular smooth muscle cell proliferation (cell count); format: cell-based
Experimental: An SMC (rat aortic smooth muscle cell) cell line at 3-10 passages was incubated in a culture medium of SmGM (Smooth muscle cell growth medium, Cambrex) including 5% fetal bovine serum and 1% antibiotic antimycotic reagent (Gibco, US) under a standard culture condition ([…], 5% CO2, 37° C., 100% RH). 2×10^4 Cells were divided into a 24-well plate, and cultured for a day so that the cells can be fixed into the 24-well plate. The cells were washed three times with PBS, put into a solution of SmGM including 5% fetal bovine serum and 1% antibiotic-antimycotic (Gibco), and then incubated for a day. After the used medium was removed, an SmGM including 5% fetal bovine serum solution supplemented with a corresponding drug was added to the cells, and the cell solution was then cultured for two days. After the cell culture, morphology of the cells was observed under a microscope. Then, the cells were detached from the plate using trypsin, and counted using a hemacytometer. 0.1% DMSO dissolved in saline was used as the vehicle control.

pig coronary stent model [5] = test: Restenosis inhibition in pig coronary stent model; format: in vivo
Experimental: (§2) All pigs receiving a surgical operation were treated with an antithrombotic agent ‘clopidogrel’ (35 mg/day) and aspirin (100 mg/day) before one week of the surgical operation. Pigs weighed 30 to 40 kg were anesthetized with ketamine (20 mg/kg IM) and xylazine (2 mg/kg IM), and their aesthesia was maintained by connecting an infusion set to their ear veins and allowing a ketamine/xylazine solution (ketamin 50 g+xylazine 10 g/500 ml saline) to flow in the ear veins according to the aesthesia state. Pig surgery regions were shaved, sterilized with betadine. Skin on the neck was cut by approximately 5 cm, and a pig carotid artery was found using a mosquito, and 1 ml of heparin (5,000 IU) was administered to pigs. Angiocardiography was performed using a SIREMOBIL 245B angiocardiographer (commercially available from Siemens). A stent (diameter: 3.0 mm; length: 15 mm) was used for surgical operation on LAD, RAD and RCX by expanding the stent at a ratio 1.3:1 of stent:vein diameter, and a position of stent transplantation was previously determined using the imaging system.
After 28 days, pigs were intravenously injected with KCl (40 meq/l) under a conventional aesthesia condition to induce pig cardioplegia, and hearts were extracted pigs. […]

pig coronary stent model [6] = test: Re-endothelization in pig coronary stent model (vWF staining); format: in vivo
Experimental: as §2, with “system. […]” for “system.”
In order to observe a re-endothelization level by a drug, a tissue section slide of pig blood vessel was reacted at 4° C. with vWF (von willebrand factor, DakoCytomation, US) Ab that stains endothelial cells of mice. […] The tissue section slide was observed and photographed under a fluorescence microscope.

[7] = isoxazole derivative together with rapamycin, versus rapamycin alone (FIG. 6)

Row | SMILES | endothelial cell proliferation [1] | other results
1 | O=C(NCCn1ccnc1)c1cc(-c2ccco2)on1 [Derivative 4, 5-furan-2-yl-isoxazole-3-carboxylic acid (2-imidazol-1-yl-ethyl)-amide] | inhibit or maintain the proliferation of the endothelial cells | 
2 | O=C(NCCc1ccncc1)c1cc(-c2ccco2)on1 [Derivative 5, 5-furan-2-yl-isoxazole-3-carboxylic acid (2-pyridin-4-yl-ethyl)-amide] | increases or maintains the proliferation of HUVEC | endothelial cell proliferation, used together with paclitaxel ([1]; isoxazole derivative together with paclitaxel, versus paclitaxel alone (FIG. 7)): recovered; endothelial cell proliferation, used together with rapamycin [1, 7]: recovered; re-endothelization on damaged carotid artery surface ([2]; 200 μg/kg/day for two weeks, versus not administered (FIG. 12)): occurs more significantly; re-endothelization, together with rapamycin ([2]; compound together with rapamycin versus compound only (FIG. 13)): more significantly increased; restenotic area of the blood vessel ([3]; 200 μg/kg/day for two weeks by osmotic pump, versus not administered (FIG. 11)): more significantly reduced in size; restenosis inhibition effect, together with rapamycin ([3]; compound together with rapamycin versus compound only (FIG. 11, FIG. 13)): more significant restenosis inhibition effect; cell number of vascular smooth muscle cells (VSMC) ([4]; drug alone, increasing concentration, two days (FIG. 5)): reduced; vascular smooth muscle cell proliferation, used together with rapamycin [4, 7]: inhibited more significantly; lumen losses of blood vessel (pig coronary stent model [5]; stent with 180 μg rapamycin plus 45, 90 or 180 μg derivative 5, 28 days, versus rapamycin-treated group (FIG. 14)): further reduced; re-endothelization on the damaged artery surface (pig coronary stent model [6]; 4 weeks, stent with rapamycin plus derivative 5 (FIG. 15)): significantly recovered
3 | O=C(NCCCn1cncn1)c1cc(-c2ccco2)on1 [Derivative 19, 5-furan-2-yl-isoxazole-3-carboxylic acid (3-[1,2,4]triazol-1-yl-propyl)-amide] | inhibit or maintain the proliferation of the endothelial cells | 
4 | O=C(NCCCn1ccnc1)c1cc(-c2ccccc2)on1 [Derivative 23, 5-phenyl-isoxazole-3-carboxylic acid (3-imidazol-1-yl-propyl)-amide] | inhibit or maintain the proliferation of the endothelial cells | 
5 | O=C(NCCCn1cncn1)c1cc(-c2ccc(F)cc2)on1 [Derivative 31, 5-(4-fluoro-phenyl)-isoxazole-3-carboxylic acid (3-[1,2,4]triazol-1-yl-propyl)-amide] | inhibit or maintain the proliferation of the endothelial cells | 
6 | O=C(NCCn1cncn1)c1cc(-c2ccc(F)cc2)on1 [Derivative 35, 5-(4-fluoro-phenyl)-isoxazole-3-carboxylic acid (2-[1,2,4]triazol-1-yl-ethyl)-amide] | inhibit or maintain the proliferation of the endothelial cells | 
7 | O=C(NCCCn1cncn1)c1cc(-c2cccs2)on1 [Derivative 50, 5-thiophen-2-yl-isoxazole-3-carboxylic acid (3-[1,2,4]-triazol-1-yl-propyl)-amide] | inhibit or maintain the proliferation of the endothelial cells | 
8 | O=C(NCCCn1cncn1)c1cc(-c2ccsc2)on1 [Derivative 62, 5-thiophen-3-yl-isoxazole-3-carboxylic acid (3-[1,2,4]-triazol-1-yl-propyl)-amide] | inhibit or maintain the proliferation of the endothelial cells | 
9 | O=C(NCCCn1ccnc1)c1cc(-c2ccsc2)on1 [Derivative 63, 5-thiophen-3-yl-isoxazole-3-carboxylic acid (3-imidazol-1-yl-propyl)-amide] | inhibit or maintain the proliferation of the endothelial cells | 
10 | Cn1nnnc1SCCNC(=O)c1cc(-c2cccs2)on1 [Derivative 68, 5-thiophen-2-yl-isoxazole-3-carboxylic acid [2-(1-methyl-1H-tetrazol-5-yl-sulfanyl)-ethyl]-amide] | inhibit or maintain the proliferation of the endothelial cells | 
11 | O=C(NCCCSc1nnc[nH]1)c1cc(-c2cccs2)on1 [Derivative 69, 5-thiophen-2-yl-isoxazole-3-carboxylic acid [3-(4H-[1,2,4]triazol-3-yl-sulfanyl)-propyl]-amide] | inhibit or maintain the proliferation of the endothelial cells | 
12 | Cn1cnnc1S(=O)(=O)CCNC(=O)c1cc(-c2ccco2)on1 [Derivative 70, 5-furan-2-yl-isoxazole-3-carboxylic acid [2-(4-methyl-4H-[1,2,4]triazol-3-yl-sulfonyl)-ethyl]-amide] | inhibit or maintain the proliferation of the endothelial cells | 
13 | CC(=O)O[C@H]1C(=O)[C@@]2(C)[C@H]([C@H](OC(=O)c3ccccc3)[C@]3(O)C[C@H](OC(=O)[C@H](O)[C@@H](NC(=O)c4ccccc4)c4ccccc4)C(C)=C1C3(C)C)[C@]1(OC(C)=O)CO[C@@H]1C[C@@H]2O [paclitaxel, reference compound] | inhibit the proliferation of HUVEC | 
14 | CO[C@H]1C[C@@H]2CC[C@@H](C)[C@@](O)(O2)C(=O)C(=O)N2CCCC[C@H]2C(=O)O[C@H]([C@H](C)C[C@@H]2CC[C@@H](O)[C@H](OC)C2)CC(=O)[C@H](C)/C=C(\C)[C@@H](O)[C@@H](OC)C(=O)[C@H](C)C[C@H](C)/C=C/C=C/C=C/1C [rapamycin, reference compound] |  | restenotic areas of blood vessels (pig coronary stent model [5]; stent with PLGA polymer and drug, after 28 days, negative control 2.74 mm^2 (FIG. 14)): 1.80 mm^2; re-endothelization rate (healing %) (pig coronary stent model [6]; drug-containing PLGA stent, polymer-coated stent 80.2% (FIG. 15)): 67.9%
